Patent US20190256498A1, “CRYSTALLINE FORMS OF DACLATASVIR DIHYDROCHLORIDE” (LUPIN LIMITED, priority 2016, published 2019)
Where a name gives a salt, the structure may show the parent alone. Values belong to the compound of their own block, whether it stands above or below them.

Legend:
[1] = Polymorphic stability of crystalline forms over a period of time; format: physicochemical
[2] = Storage stability of crystalline form L2 (temperature/RH conditions, HPLC purity); format: physicochemical
[3] = neat crystalline dihydrochloride salts N1 and N2, screening studies; cited from earlier work

SMILES: COC(=O)N[C@H](C(=O)N1CCC[C@H]1c1nc(-c2ccc(-c3ccc(-c4c[nH]c([C@@H]5CCCN5C(=O)[C@@H](NC(=O)OC)C(C)C)n4)cc3)cc2)c[nH]1)C(C)C [form L1, N,N′-[[1,1′-biphenyl]-4,4′-diylbis[1H-imidazole-5,2-diyl-(2S)-2,1-pyrrolidinediyl[(1S)-1-(1-methylethyl)-2-oxo-2,1-ethanediyl]]]bis-carbamic acid, C,C′-dimethyl ester, hydrochloride (1:2)]
polymorphic stability (conversion to any other polymorphic form) [1]: stable and do not get converted to any other polymorphic form

stability ([2]; 5±3° C.): stable | stability ([2]; 25±2° C./60±5% RH): stable | stability ([2]; 40±2° C./75±5% RH): stable
SMILES: COC(=O)N[C@H](C(=O)N1CCC[C@H]1c1nc(-c2ccc(-c3ccc(-c4c[nH]c([C@@H]5CCCN5C(=O)[C@@H](NC(=O)OC)C(C)C)n4)cc3)cc2)c[nH]1)C(C)C [form L2, N,N′-[[1,1′-biphenyl]-4,4′-diylbis[1H-imidazole-5,2-diyl-(2S)-2,1-pyrrolidinediyl[(1S)-1-(1-methylethyl)-2-oxo-2,1-ethanediyl]]]bis-carbamic acid, C,C′-dimethyl ester, hydrochloride (1:2)]

SMILES: COC(=O)N[C@H](C(=O)N1CCC[C@H]1c1nc(-c2ccc(-c3ccc(-c4c[nH]c([C@@H]5CCCN5C(=O)[C@@H](NC(=O)OC)C(C)C)n4)cc3)cc2)c[nH]1)C(C)C [form N-2, N,N′-[[1,1′-biphenyl]-4,4′-diylbis[1H-imidazole-5,2-diyl-(2S)-2,1-pyrrolidinediyl[(1S)-1-(1-methylethyl)-2-oxo-2,1-ethanediyl]]]bis-carbamic acid, C,C′-dimethyl ester, hydrochloride (1:2)]
thermodynamic stability among polymorphs [3]: thermodynamically most stable polymorph
